# In patent US9266900B2, “Additives for improved isohexide products” (ARCHER DANIELS MIDLAND COMPANY, priority 2012, dated 2016):
# Values joined by “and” are separate entries in the source; they are usually repeats but may differ in a detail not shown here. Equal values may be shown once.
# What was measured:
# [1] = Distillation of crude isosorbide mixture with added antioxidant: co-distillation and initial distillate color; format: physicochemical; conditions: for initial APHA color of the neat distillate: neat distillate after distillation, ASTM D1209; for additive distilled with the isosorbide / recovered in the distillate by UPLC analysis: short path distillation, oil bath 185 to 195 degrees Celsius, less than 2 torr; for antioxidant recovered in the distillate, yield: co-distilled with isosorbide
# Method: A 500 mL boiling flask equipped with a Teflon stir bar was charged with 100 g of ion-exchanged (strong acid cation/strong base anion-exchanged), dewatered, molten isosorbide. While stirring, 40.02 mg of 2,6-di-tert-butyl-4-methoxyphenol (DTMP), previously dissolved in 2 mL of absolute ethanol, was added via pipette, indicating the DTMP concentration as 400 ppm in the matrix. The flask was then outfitted with a still head, condenser, and receiver, placed under a vacuum of <2 torr, and placed in a digitally controlled oil bath. The bath was gradually heated to 190 degrees Celsius while maintaining a vacuum. At a bath temperature of approximately 155 degrees, isosorbide began to distill (vapor temperature of 150 deg C.). Continuous distillation occurred for approximately 30 minutes. 45.6 grams of clear, colorless isosorbide was collected, whose APHA color was measured as 6. Quantitative analysis by UPLC determined the concentration of DTMP in the distilled isosorbide to be 503 ppm.
# In this as in subsequent examples, a quantity of an antioxidant under evaluation was dissolved in 1-2 mL of absolute ethanol and then added via pipette to a crude isosorbide mixture which had been treated previously to remove ionic species therefrom. Amounts were set so that the concentration of the antioxidant in the crude isosorbide mixture was in the range of from 250 to 900 ppm by weight. The stabilized crude isosorbide mixtures were then distilled in turn in a short path, jacketed distillation apparatus consisting of a 250 cc 3 neck boiling flask containing a PTFE magnetic stir bar in which one neck was fitted with a rubber septum, a thermocouple extended into the mixture being distilled from a central neck, and the third neck was equipped with the short path head leading to a boiling flask receiver maintained at 80 degrees Celsius. The boiling flask was immersed in an oil bath maintained at from 185 to 195 degrees Celsius, and distillation occurred under a vacuum pressure of less than 2 torr.
# [2] = Heating of isosorbide distillate in 200° C. oil bath for 1 hr under air, APHA color by UV/vis; format: physicochemical; conditions: 0.5 g diluted with 2 mL water
# Method: About, an 11 gram sample of the isosorbide distillate was added to a glass tube and capped with a septum. The glass tube was then submerged in a 200° C. oil bath for 1 hr under air. Approximately 0.5 g of the heated distillate sample was subsequently diluted with 2 mL of water and analyzed by UV/vis to obtain an APHA color value. An APHA color of approximately 250 was observed, compared to an APHA value for a distillate sample absent the DTMP additive that was offscale (>500).
# About an 11 gram sample of the isosorbide distillate was added to a glass tube and capped with a septum. The glass tube was then submerged in a 200° C. oil bath for 1 hr under air.
# [3] = Thermal aging of neat distillate in 85 deg C. oven under air up to 28 days; format: physicochemical; conditions: for formic acid after 28 days / furfural after 28 days / APHA color after 28 days: 85 deg C.; for APHA color after 28 days: air, measured as a 20% solution; for APHA color, time zero: UV/vis; for color stability criteria after accelerated aging: 85 degrees Celsius, 4 weeks, APHA less than 200 neat distillate and less than 250 for 85% solution
# Method: The DTMP-stabilized distillate was further tested for color storage stability by thermal aging over a more extended period of time, in particular, by preparing typically five 10 mL headspace vials of each of the neat distillate and an 85% solution of the distillate in water in 0.5 gram sample portions. One vial of the set of five for the neat distillate or the 85% solution was set aside as the “time zero” data point. The time zero sample was diluted with 2 mL of water and analyzed.
# For the neat distillate, the APHA color of the time zero sample was less than 20 by UV/vis. All other decomposition products were less than 5 ppm. The four other vials of the neat distillate were then placed in an 85 deg C. oven trader air, and one vial was removed at 7 days, another at 14 days, another at 21 days, and the last of the four at 28 days. Once removed from the oven, each sample was allowed to cool to room temperature and diluted with 2 mL of water. The sample was then analyzed by UV/vis, UPLC, LC-MS, and GC. After 28 days, APHA color, measured as a 20% solution, was only 28. Furfural and formic acid were measured at 18 ppm and 39 ppm, respectively.
# The BBTC-stabilized distillate was further tested for color storage stability by thermal aging over a more extended period of time, in particular, by preparing typically five 10 mL headspace vials of each of the neat distillate and an 85% solution of the distillate in water in 0.5 gram sample portions. One vial of the set of five for the neat distillate or the 85% solution was set aside as the “time zero” data point. The time zero sample was diluted with 2 mL of water and analyzed.
# For the neat distillate, the APHA color of the time zero sample was less than 1 by UV/vis. Formic acid concentration in the time zero sample was less than 5 ppm, while furfural concentration was less than 1 ppm. The four other vials of the neat distillate were then placed in an 85 deg C. oven under air, and one vial was removed at 7 days, another at 14 days, another at 21 days, and the last of the four at 28 days. Once removed from the oven, each sample was allowed to cool to room temperature and diluted with 2 mL of water. Each sample was then analyzed by UV/vis, UPLC, LC-MS, and GC. After 28 days, APHA color, measured as a 20% solution, was 191. Furfural and formic acid were measured at 298 ppm and 6,102 ppm, respectively.
# [4] = Thermal aging of 85% solution of the distillate in water at 85 deg C. up to 28 days; format: physicochemical; conditions: for formic acid concentration, final sample / furfural concentration, final sample / APHA color, day 28 / formic acid concentration, initially / furfural concentration, initially / APHA color, time zero: 85% solution; for formic acid concentration, final sample / furfural concentration, final sample / APHA color, day 28: 85 deg C.; for formic acid concentration, final sample / furfural concentration, final sample: 28 days; for APHA color, day 28: day 28, final diluted (20%); for formic acid concentration, initially / furfural concentration, initially: initial; for APHA color, time zero: diluted (20%)
# [5] = Solubility and retention of stabilizer in isosorbide product; conditions: 85% solution isosorbide product
# [6] = stable = formic acid less than 5 ppm and monoanhydrohexoses less than 50 ppm, dry weight basis; cited from earlier work
# [7] = Isosorbide (100% molten) mixed with additives, heated 1-2 hours at 200 degrees Celsius, accelerated aging tests; conditions: additive screening
Structure (SMILES),initial APHA color of the neat distillate [1],additive distilled with the isosorbide / recovered in the distillate by UPLC analysis [1],formic acid after 28 days ([3]; neat distillate),APHA color after 28 days ([3]; neat distillate),"formic acid concentration, time zero ([3]; neat distillate, time zero)","APHA color, time zero ([3]; neat distillate, time zero)","formic acid concentration, final sample [4]","APHA color, day 28 [4]","formic acid concentration, initially [4]","APHA color, time zero [4]",stability of composition according to the '477 patent [6],also measured
"CCCC(c1cc(C(C)(C)C)c(O)cc1C)c1cc(C(C)(C)C)c(O)cc1C [BBTC, 4,4′-butylidenebis(6-t-butyl-m-cresol)]",10,About 83%,"6,102 ppm",191,less than 5 ppm,less than 1,4264 ppm,more than 500,less than 5 ppm,less than 1,–,"APHA color after heating [2]: offscale; furfural after 28 days ([3]; neat distillate): 298 ppm; furfural concentration, time zero ([3]; neat distillate, time zero): less than 1 ppm; furfural concentration, final sample [4]: 298 ppm; furfural concentration, initially [4]: less than 1 ppm"
"COc1ccc(O)c(C(C)(C)C)c1 [BHA, butylated hydroxyanisole]",14.1 and 14,About 63%,21 ppm,40,less than 5 ppm,less than 15,44 ppm,30,less than 5 ppm,less than 1,–,"antioxidant recovered in the distillate, yield [1]: 63%; APHA color after heating [2]: 222; color stability criteria after accelerated aging [3]: criteria were met; solubility in 85% solution product [5]: continued good solubility"
Cc1cc(C(C)(C)C)c(O)c(C(C)(C)C)c1 [BHT],–,–,–,–,–,–,–,–,–,–,stable,–
"COc1cc(C)cc(OC)c1O [DMMP, 2,6-dimethoxy-4-methylphenol]",13,About 84%,74 ppm,17,less than 5 ppm,less than 15,63 ppm,50,less than 5 ppm,5,–,"antioxidant recovered in the distillate, yield [1]: 84%; APHA color after heating [2]: 205; color stability criteria after accelerated aging [3]: criteria were met; solubility in 85% solution product [5]: continued good solubility"
"COc1cccc(OC)c1O [DMP, 2,6-dimethoxyphenol]",18.7,–,–,–,–,–,–,–,–,–,–,"antioxidant recovered in the distillate, yield [1]: 64%; color stability criteria after accelerated aging [3]: met the criterion for either the neat distillate or the 85% solution product hut not for both"
"COc1cc(C(C)(C)C)c(O)c(C(C)(C)C)c1 [DTMP, 2,6-di-tert-butyl-4-methoxyphenol]",–,–,39 ppm,28,–,less than 20,250 ppm,150,–,0,–,"concentration of additive in the distilled isosorbide by UPLC ([1]; 400 ppm in the matrix before distillation): 503 ppm; antioxidant recovered in the distillate, yield [1]: 50%; APHA color after heating [2]: approximately 250; color stability criteria after accelerated aging [3]: met the criterion for either the neat distillate or the 85% solution product hut not for both; furfural after 28 days ([3]; neat distillate): 18 ppm; all other decomposition products, time zero ([3]; neat distillate, time zero): less than 5 ppm; 5-hydroxymethylfurfural (HMF) formation ([3]; neat stabilized sample, aged): < 5 ppm; furfural concentration, final sample [4]: 88 ppm; furfural concentration, initially [4]: less than 5 ppm; 5-hydroxymethylfurfural (HMF) formation ([4]; 85% stabilized sample, aged): < 5 ppm"
O=P([O-])([O-])O.[Na+].[Na+] [Na2HPO4],–,–,–,–,–,–,–,–,–,–,stable,–
O=B[O-].[Na+] [NaBO2],–,–,–,–,–,–,–,–,–,–,stable,–
[Na+].[OH-] [NaOH],–,–,–,–,–,–,–,–,–,–,stable,–
"CC(C)(C)c1cc(O)ccc1O [TBHQ, tert-butylhydroquinone]",–,Virtually a quantitative recovery,3458 ppm,233,less than 5 ppm,110,770 ppm,more than 500,less than 5 ppm,less than 1,–,"furfural after 28 days ([3]; neat distillate): 182 ppm; furfural concentration, time zero ([3]; neat distillate, time zero): less than 1 ppm; furfural concentration, final sample [4]: 257 ppm; furfural concentration, initially [4]: less than 1 ppm"
"Cc1c(C)c2c(c(C)c1O)CCC(C)(C(=O)O)O2 (stereo not shown) [Trolox™, 6-hydroxy-2,5,7,8-tetramethylchromane-2-carboxylic acid]",15,About 26%,3291 ppm,over 500,less than 5 ppm,15,3360 ppm,more than 500,less than 5 ppm,5,–,"furfural after 28 days ([3]; neat distillate): 460 ppm; furfural concentration, time zero ([3]; neat distillate, time zero): less than 1 ppm; rate of color formation compared to control vials containing distillate alone ([3]; thermal aging, stabilized samples vs control): developed color more quickly; furfural concentration, final sample [4]: 512 ppm; furfural concentration, initially [4]: less than 1 ppm"
C1OC1COC1COC2C(OCC3CO3)COC12 (stereo not shown) [isosorbide diglycidol ether],–,–,–,–,–,–,–,–,–,–,–,effect on color stability of isosorbide [7]: ineffective in the absence of an antioxidant
C1COCCN1 [morpholine],–,–,–,–,–,–,–,–,–,–,stable,–
O=C1O[C@H]([C@@H](O)CO)C(O)=C1O [vitamin C],–,–,–,–,–,–,–,–,–,–,stable,–
